According to US4393050A, “Analogs of extended N-terminal somatostatin” (The Salk Institute for Biological Studies, priority 1981, dated 1983):
Read-outs that look alike come from different tables or passages of the source. Residues, ends and D or L forms follow the SMILES beside them.

How the values were obtained:
[1] = system: cells of rat pituitary glands; type: cell-based
Experimental: To determine the effectiveness of the peptides to inhibit the release of growth hormone, in vitro radioimmunoassays are carried out using the SS-28 analogs in side-by-side comparison with equimolar concentrations of somotostatin-14 having a known effectiveness to inhibit the release of growth hormone induced by the application of isobutyl methyl xanthine to pituitary cells. Cultures are used which include cells of rat pituitary glands removed some four to five days previously in a system that minimizes enzymatic degradation, generally following the procedure set forth in Vale et al., Methods in Enzymology, Hormones and Cyclic Nucleotides (1975) Vol. 37, p. 82. Both cultures of a defined standard medium and cultures which are considered optimal for the secretion of growth hormone, as a result of having additions of either 2% or 10% of serum from a foetal calf, are used for the comparative testing.

insulin secretion = type: in vivo, rats
Experimental: (§1) In vivo experiments are carried out with the SS-28 analogs, using the procedure described in Brown et al., Metabolism (1976) Vol. 25, pp. 1501-1503, to determine the potency, relative to somatostatin-14 to inhibit the secretion of glucagon and insulin stimulated by the administration of arginine to groups of six rats.

glucagon secretion = type: in vivo, rats
Experimental: as §1

[2] = juvenile-type diabetics, complete absence of circulating insulin; cited from earlier work
[3] = rats, arginine-stimulated secretion, SS-14 = 1

SMILES | In Vitro Growth Hormone (potency to inhibit release, relative to SS-14) [1] | In Vivo Insulin (potency to inhibit secretion, relative to SS-14) (insulin secretion; rat, in vivo) | In Vivo Glugacon (potency to inhibit secretion, relative to SS-14) (glucagon secretion; rat, in vivo) | In Vivo Insulin (potency to inhibit secretion, relative to SS-14) (insulin secretion; [3]) | In Vivo Glugacon (potency to inhibit secretion, relative to SS-14) (glucagon secretion; [3]) | In Vitro Growth Hormone (potency to inhibit release, relative to SS-14) ([1]; rat pituitary cell cultures, isobutyl methyl xanthine-induced GH release, SS-14 = 1) | diminution of fasting hyperglycemia [2] [%]
CC(C)C[C@H](NC(=O)[C@H](C)NC(=O)[C@@H]1CCCN1C(=O)[C@H](CC(N)=O)NC(=O)[C@H](CO)NC(=O)[C@H](CC(N)=O)NC(=O)[C@H](C)NC(=O)[C@@H](N)CO)C(=O)N[C@@H](C)C(=O)N1CCC[C@H]1C(=O)N[C@@H](CCCNC(=N)N)C(=O)N[C@@H](CCC(=O)O)C(=O)N[C@@H](CCCNC(=N)N)C(=O)N[C@@H](CCCCN)C(=O)N[C@@H](C)C(=O)NCC(=O)N[C@H]1CSSC[C@@H](C(=O)O)NC(=O)[C@H](CO)NC(=O)[C@H]([C@@H](C)O)NC(=O)[C@H](Cc2ccc(O)cc2)NC(=O)[C@H]([C@@H](C)O)NC(=O)[C@H](CCCCN)NC(=O)[C@@H](Cc2c[nH]c3ccccc23)NC(=O)[C@H](Cc2ccccc2)NC(=O)[C@H](Cc2ccccc2)NC(=O)[C@H](CC(N)=O)NC(=O)[C@H](CCCCN)NC1=O [Peptide 1, [Leu^8, D-Trp^22, Tyr^25]--SS-28] (HELM PEPTIDE1{S.A.N.S.N.P.A.L.A.P.R.E.R.K.A.G.C.K.N.F.F.[dW].K.T.Y.T.S.C}$PEPTIDE1,PEPTIDE1,17:R3-28:R3$$$V2.0) | 4.84 |  |  |  |  |  | 
CSCC[C@H](NC(=O)[C@H](C)NC(=O)[C@@H]1CCCN1C(=O)[C@H](CC(N)=O)NC(=O)[C@H](CO)NC(=O)[C@H](CC(N)=O)NC(=O)[C@H](C)NC(=O)[C@@H](N)CO)C(=O)N[C@@H](C)C(=O)N1CCC[C@H]1C(=O)N[C@@H](CCCNC(=N)N)C(=O)N[C@@H](CCC(=O)O)C(=O)N[C@@H](CCCNC(=N)N)C(=O)N[C@@H](CCCCN)C(=O)N[C@@H](C)C(=O)NCC(=O)N[C@H]1CSSC[C@@H](C(=O)O)NC(=O)[C@@H](CO)NC(=O)[C@H]([C@@H](C)O)NC(=O)[C@H](Cc2ccccc2)NC(=O)[C@H]([C@@H](C)O)NC(=O)[C@H](CCCCN)NC(=O)[C@@H](Cc2c[nH]c3ccccc23)NC(=O)[C@H](Cc2ccccc2)NC(=O)[C@H](Cc2ccccc2)NC(=O)[C@H](CCCCN)NC1=O [Peptide 3, desAsn^19 [D-Trp^22, D-Ser^27]--SS-28] (HELM PEPTIDE1{S.A.N.S.N.P.A.M.A.P.R.E.R.K.A.G.C.K.F.F.[dW].K.T.F.T.[dS].C}$PEPTIDE1,PEPTIDE1,17:R3-27:R3$$$V2.0) | 0.1 | 145 | 1 |  |  |  | 
CSCC[C@H](NC(=O)[C@H](C)NC(=O)[C@@H]1CCCN1C(=O)[C@H](CC(N)=O)NC(=O)[C@H](CO)NC(=O)[C@H](CC(N)=O)NC(=O)[C@H](C)NC(=O)[C@@H](N)CO)C(=O)N[C@@H](C)C(=O)N1CCC[C@H]1C(=O)N[C@@H](CCCNC(=N)N)C(=O)N[C@@H](CCC(=O)O)C(=O)N[C@@H](CCCNC(=N)N)C(=O)N[C@@H](CCCCN)C(=O)N[C@@H](C)C(=O)NCC(=O)N[C@H]1CSSC[C@H](C(=O)O)NC(=O)[C@H](CO)NC(=O)[C@H](Cc2ccccc2)NC(=O)[C@H]([C@@H](C)O)NC(=O)[C@H](CCCCN)NC(=O)[C@@H](Cc2c[nH]c3ccccc23)NC(=O)[C@H](Cc2ccccc2)NC(=O)[C@H](Cc2ccccc2)NC1=O [Peptide 4, desAA^18,19,26 [D-Trp^22,D-Cys^28]--SS-28] (HELM PEPTIDE1{S.A.N.S.N.P.A.M.A.P.R.E.R.K.A.G.C.F.F.[dW].K.T.F.S.[dC]}$PEPTIDE1,PEPTIDE1,17:R3-25:R3$$$V2.0) | 1.51 | 18 | 14 |  |  |  | 
C[C@H](N)C(=O)NCC(=O)N[C@H]1CSSC[C@@H](C(=O)O)NC(=O)[C@H](CO)NC(=O)[C@H]([C@@H](C)O)NC(=O)[C@H](Cc2ccccc2)NC(=O)[C@H]([C@@H](C)O)NC(=O)[C@H](CCCCN)NC(=O)[C@H](Cc2c[nH]c3ccccc23)NC(=O)[C@H](Cc2ccccc2)NC(=O)[C@H](Cc2ccccc2)NC(=O)[C@H](CC(N)=O)NC(=O)[C@H](CCCCN)NC1=O [SS-14, somatostatin] |  |  |  | 1 | 1 | 1 | ≤ 50
